Reference: the NIST ThermoML archive (doi:10.1021/je030101n)
± gives the expanded uncertainty stated by the source.

Experiments:
[1] = 101.3 kPa, Liquid; for viscosity: Capillary tube (Ostwald / Ubbelohde) method; for mass density: Pycnometric method
[2] = xn = mol fraction of the nth substance listed; conditions: 101.3 kPa, Liquid, x1 = 1; for viscosity: Capillary tube (Ostwald / Ubbelohde) method; for mass density: Pycnometric method

SMILES	viscosity ([1]; 298.15 K) [mPa·s]	mass density ([1]; 298.15 K) [kg/m3]	viscosity ([1]; 303.15 K) [mPa·s]	mass density ([1]; 303.15 K) [kg/m3]	viscosity ([1]; 308.15 K) [mPa·s]	mass density ([1]; 308.15 K) [kg/m3]	viscosity ([1]; 313.15 K) [mPa·s]	mass density ([1]; 313.15 K) [kg/m3]	viscosity ([2]; 298.15 K) [mPa·s]	mass density ([2]; 298.15 K) [kg/m3]	viscosity ([2]; 303.15 K) [mPa·s]	mass density ([2]; 303.15 K) [kg/m3]	viscosity ([2]; 308.15 K) [mPa·s]	mass density ([2]; 308.15 K) [kg/m3]	viscosity ([2]; 313.15 K) [mPa·s]	mass density ([2]; 313.15 K) [kg/m3]
Nc1ccccc1 [aniline]	3.69 ± 0.028	1017.2 ± 0.6	3.19 ± 0.024	1012.9 ± 0.6	2.8 ± 0.021	1008.6 ± 0.6	2.42 ± 0.018	1004.2 ± 0.6	–	–	–	–	–	–	–	–
N#Cc1ccccc1 [benzonitrile]	1.171 ± 0.009	1000.9 ± 0.6	1.126 ± 0.009	996.4 ± 0.6	1.068 ± 0.009	991.9 ± 0.6	1.001 ± 0.008	987.2 ± 0.6	–	–	–	–	–	–	–	–
CN(C)C=O [dimethylformamide]	0.803 ± 0.006	944.5 ± 0.3	0.756 ± 0.005	939.8 ± 0.3	0.71 ± 0.005	935.1 ± 0.3	0.673 ± 0.005	930.2 ± 0.3	–	–	–	–	–	–	–	–
CN(C)C=O [dimethylformamide] + N#Cc1ccccc1	–	–	–	–	–	–	–	–	0.803 ± 0.006	944.5 ± 0.3	0.756 ± 0.005	939.8 ± 0.3	0.71 ± 0.005	935.1 ± 0.3	0.673 ± 0.005	930.2 ± 0.3
CN(C)C=O [dimethylformamide] + Nc1ccccc1	–	–	–	–	–	–	–	–	0.803 ± 0.006	944.5 ± 0.3	0.756 ± 0.005	939.8 ± 0.3	0.71 ± 0.005	935.1 ± 0.3	0.673 ± 0.005	930.2 ± 0.3
